{"source": "ChEMBL document CHEMBL3804830", "about": "“Efficient synthesis of new antiproliferative steroidal hybrids using the molecular hybridization approach” (Eur J Med Chem, 2016)", "key": {"[1]": {"experiment": "Antiproliferative activity against human U87 cells assessed as cell growth inhibition after 72 hrs by MTT assay", "assay_type": "functional, cell-based, U-87MG ATCC", "details": "U-87 MG"}, "[2]": {"experiment": "Antiproliferative activity against human EC109 cells assessed as cell growth inhibition after 72 hrs by MTT assay", "assay_type": "functional, cell-based", "details": "ECa-109, 72 h"}, "MCF7": {"test_system": "MCF7", "experiment": "cells", "details": "Homo sapiens, MCF7, 72 h", "description": "Antiproliferative activity against human MCF7 cells assessed as cell growth inhibition after 72 hrs by MTT assay"}, "SH-SY5Y": {"test_system": "SH-SY5Y", "experiment": "Antiproliferative activity against human SH-SY5Y cells assessed as cell growth inhibition after 72 hrs by MTT assay", "assay_type": "functional, cell-based"}, "[3]": {"experiment": "Antiproliferative activity against human MGC803 cells assessed as cell growth inhibition after 72 hrs by MTT assay", "assay_type": "functional, cell-based", "details": "MGC-803, 72 h"}}, "data": [{"molecule": "C[C@]12CC[C@H](OC(=O)Cn3cc(CN4C(=O)C(=O)c5ccccc54)nn3)CC1=CC[C@@H]1[C@@H]2CC[C@]2(C)C(=O)CC[C@@H]12", "values": [{"measurement": "IC50", "setting": "[1]", "result": 45.6, "unit": "µM"}, {"measurement": "IC50", "setting": "[2]", "result": "> 128", "unit": "µM"}, {"measurement": "IC50", "setting": "MCF7", "result": "> 128", "unit": "µM"}, {"measurement": "IC50", "setting": "SH-SY5Y", "result": 8.62, "unit": "µM"}, {"measurement": "IC50", "setting": "[3]", "result": "> 128", "unit": "µM"}]}, {"molecule": "C[C@]12CC[C@H](OC(=O)Cn3cc(COc4ccc(Br)cc4)nn3)CC1=CC[C@@H]1[C@@H]2CC[C@]2(C)C(=O)CC[C@@H]12", "values": [{"measurement": "IC50", "setting": "[1]", "result": 30.1, "unit": "µM"}, {"measurement": "IC50", "setting": "[2]", "result": 21, "unit": "µM"}, {"measurement": "IC50", "setting": "MCF7", "result": 93.2, "unit": "µM"}, {"measurement": "IC50", "setting": "SH-SY5Y", "result": 22.7, "unit": "µM"}, {"measurement": "IC50", "setting": "[3]", "result": 48.2, "unit": "µM"}]}, {"molecule": "C[C@]12CC[C@H](OC(=O)Cn3cc(COc4ccc5ccc(=O)oc5c4)nn3)CC1=CC[C@@H]1[C@@H]2CC[C@]2(C)C(=O)CC[C@@H]12", "values": [{"measurement": "IC50", "setting": "[1]", "result": 43.7, "unit": "µM"}, {"measurement": "IC50", "setting": "[2]", "result": "> 128", "unit": "µM"}, {"measurement": "IC50", "setting": "MCF7", "result": "> 128", "unit": "µM"}, {"measurement": "IC50", "setting": "SH-SY5Y", "result": 54.9, "unit": "µM"}, {"measurement": "IC50", "setting": "[3]", "result": "> 128", "unit": "µM"}]}, {"molecule": "C[C@]12CC[C@H](OC(=O)Cn3cc(COc4ccc(/C=C/C(=O)c5ccccc5)cc4)nn3)CC1=CC[C@@H]1[C@@H]2CC[C@]2(C)C(=O)CC[C@@H]12", "values": [{"measurement": "IC50", "setting": "[1]", "result": "> 128", "unit": "µM"}, {"measurement": "IC50", "setting": "[2]", "result": 118, "unit": "µM"}, {"measurement": "IC50", "setting": "MCF7", "result": "> 128", "unit": "µM"}, {"measurement": "IC50", "setting": "SH-SY5Y", "result": 75, "unit": "µM"}, {"measurement": "IC50", "setting": "[3]", "result": "> 128", "unit": "µM"}]}, {"molecule": "C[C@]12CC[C@H](OC(=O)Cn3cc(COc4ccc(C(=O)/C=C/c5ccc(Cl)c(Cl)c5)cc4)nn3)CC1=CC[C@@H]1[C@@H]2CC[C@]2(C)C(=O)CC[C@@H]12", "values": [{"measurement": "IC50", "setting": "[1]", "result": "> 128", "unit": "µM"}, {"measurement": "IC50", "setting": "[2]", "result": "> 128", "unit": "µM"}, {"measurement": "IC50", "setting": "MCF7", "result": "> 128", "unit": "µM"}, {"measurement": "IC50", "setting": "SH-SY5Y", "result": 36.6, "unit": "µM"}, {"measurement": "IC50", "setting": "[3]", "result": "> 128", "unit": "µM"}]}, {"molecule": "C[C@]12CC[C@H](OC(=O)Cn3cc(COc4ccc(/C=C/C(=O)c5ccc(F)cc5)cc4)nn3)CC1=CC[C@@H]1[C@@H]2CC[C@]2(C)C(=O)CC[C@@H]12", "values": [{"measurement": "IC50", "setting": "[1]", "result": "> 128", "unit": "µM"}, {"measurement": "IC50", "setting": "[2]", "result": "> 128", "unit": "µM"}, {"measurement": "IC50", "setting": "MCF7", "result": 91.5, "unit": "µM"}, {"measurement": "IC50", "setting": "SH-SY5Y", "result": 46.5, "unit": "µM"}, {"measurement": "IC50", "setting": "[3]", "result": "> 128", "unit": "µM"}]}, {"molecule": "C[C@]12CC[C@H](OC(=O)Cn3cc(CNc4ccc(Br)cc4)nn3)CC1=CC[C@@H]1[C@@H]2CC[C@]2(C)C(=O)CC[C@@H]12", "values": [{"measurement": "IC50", "setting": "[1]", "result": 86.7, "unit": "µM"}, {"measurement": "IC50", "setting": "[2]", "result": 37.1, "unit": "µM"}, {"measurement": "IC50", "setting": "MCF7", "result": 27.6, "unit": "µM"}, {"measurement": "IC50", "setting": "SH-SY5Y", "result": 59.4, "unit": "µM"}, {"measurement": "IC50", "setting": "[3]", "result": 19.4, "unit": "µM"}]}, {"molecule": "C[C@]12CC[C@H](OC(=O)Cn3cc(COc4ccc(C(=O)/C=C/c5ccc(Br)cc5)cc4)nn3)CC1=CC[C@@H]1[C@@H]2CC[C@]2(C)C(=O)CC[C@@H]12", "values": [{"measurement": "IC50", "setting": "[1]", "result": "> 128", "unit": "µM"}, {"measurement": "IC50", "setting": "[2]", "result": 79.8, "unit": "µM"}, {"measurement": "IC50", "setting": "MCF7", "result": 112, "unit": "µM"}, {"measurement": "IC50", "setting": "SH-SY5Y", "result": 72.6, "unit": "µM"}, {"measurement": "IC50", "setting": "[3]", "result": "> 128", "unit": "µM"}]}, {"molecule": "C[C@]12CC[C@H](OC(=O)Cn3cc(CN4C(=O)C(=O)c5cc(Cl)ccc54)nn3)CC1=CC[C@@H]1[C@@H]2CC[C@]2(C)C(=O)CC[C@@H]12", "values": [{"measurement": "IC50", "setting": "[1]", "result": 47.9, "unit": "µM"}, {"measurement": "IC50", "setting": "[2]", "result": 61.7, "unit": "µM"}, {"measurement": "IC50", "setting": "MCF7", "result": "> 128", "unit": "µM"}, {"measurement": "IC50", "setting": "SH-SY5Y", "result": 7.32, "unit": "µM"}, {"measurement": "IC50", "setting": "[3]", "result": 57.8, "unit": "µM"}]}, {"molecule": "Cc1cc(=O)oc2cc(OCc3cn(CC(=O)O[C@H]4CC[C@@]5(C)C(=CC[C@@H]6[C@@H]5CC[C@]5(C)C(=O)CC[C@@H]65)C4)nn3)ccc12", "values": [{"measurement": "IC50", "setting": "[1]", "result": 47.4, "unit": "µM"}, {"measurement": "IC50", "setting": "[2]", "result": "> 128", "unit": "µM"}, {"measurement": "IC50", "setting": "MCF7", "result": "> 128", "unit": "µM"}, {"measurement": "IC50", "setting": "SH-SY5Y", "result": 49.5, "unit": "µM"}, {"measurement": "IC50", "setting": "[3]", "result": "> 128", "unit": "µM"}]}, {"molecule": "C[C@]12CC[C@H](OC(=O)Cn3cc(COc4cc(=O)oc5ccccc45)nn3)CC1=CC[C@@H]1[C@@H]2CC[C@]2(C)C(=O)CC[C@@H]12", "values": [{"measurement": "IC50", "setting": "[1]", "result": 40, "unit": "µM"}, {"measurement": "IC50", "setting": "[2]", "result": "> 128", "unit": "µM"}, {"measurement": "IC50", "setting": "MCF7", "result": "> 128", "unit": "µM"}, {"measurement": "IC50", "setting": "SH-SY5Y", "result": "> 128", "unit": "µM"}, {"measurement": "IC50", "setting": "[3]", "result": "> 128", "unit": "µM"}]}, {"molecule": "C[C@]12CC[C@H](OC(=O)Cn3cc(CN4C(=O)C(=O)c5cc(Br)ccc54)nn3)CC1=CC[C@@H]1[C@@H]2CC[C@]2(C)C(=O)CC[C@@H]12", "values": [{"measurement": "IC50", "setting": "[1]", "result": 39.2, "unit": "µM"}, {"measurement": "IC50", "setting": "[2]", "result": 44.1, "unit": "µM"}, {"measurement": "IC50", "setting": "MCF7", "result": "> 128", "unit": "µM"}, {"measurement": "IC50", "setting": "SH-SY5Y", "result": 10.3, "unit": "µM"}, {"measurement": "IC50", "setting": "[3]", "result": 32.5, "unit": "µM"}]}, {"molecule": "O=c1c(F)cn(Cc2cn(Cc3ccccc3Cl)nn2)c(=O)n1Cc1cn(Cc2ccccc2Cl)nn1", "values": [{"measurement": "IC50", "setting": "[1]", "result": "> 128", "unit": "µM"}, {"measurement": "IC50", "setting": "[2]", "result": "> 128", "unit": "µM"}, {"measurement": "IC50", "setting": "MCF7", "result": "> 128", "unit": "µM"}, {"measurement": "IC50", "setting": "SH-SY5Y", "result": "> 128", "unit": "µM"}, {"measurement": "IC50", "setting": "[3]", "result": "> 128", "unit": "µM"}]}, {"molecule": "O=c1[nH]cc(F)c(=O)[nH]1", "note": "[FLUOROURACIL]", "values": [{"measurement": "IC50", "setting": "[1]", "result": 5.61, "unit": "µM"}, {"measurement": "IC50", "setting": "[2]", "result": 3.17, "unit": "µM"}, {"measurement": "IC50", "setting": "SH-SY5Y", "result": 3.26, "unit": "µM"}, {"measurement": "IC50", "setting": "[3]", "result": 1.25, "unit": "µM"}]}]}
